This data set is described as follows: Evaluation of stability in liver microsome. As to conditions: mouse liver microsome 0.25 mg/mL, 1 μM test compound, 37° C. for 30 minutes.
In the case of `COCc1ccc(NC(=O)c2c(C#Cc3cnc[nH]3)n(C3(C)CC3)c3ncnc(N)c23)cc1` [Example 191, 6-((1H-imidazol-5-yl)ethynyl)-4-amino-N-(4-(methoxymethyl)phenyl)-7-(1-methylcyclopropyl)-7H-pyrrolo[2,3-d]pyrimidine-5-carboxamide], the “Remaining (%)” value was 53%.
For `COCc1ccc(NC(=O)c2c(C#CCC3CCOCC3)n(C3(C)CC3)c3ncnc(N)c23)cc1` [Example 152, 4-amino-N-(4-(methoxymethyl)phenyl)-7-(1-methylcyclopropyl)-6-(3-(tetrahydro-2H-pyran-4-yl)prop-1-yn-1-yl)-7H-pyrrolo[2,3-d]pyrimidine-5-carboxamide] the value was 57%; for `COCc1ccc(NC(=O)c2c(C#Cc3cncn3C)n(C3(C)CC3)c3ncnc(N)c23)cc1` [Example 93, 4-amino-N-(4-(methoxymethyl)phenyl)-6-((1-methyl-1H-imidazol-5-yl)ethynyl)-7-(1-methylcyclopropyl)-7H-pyrrolo[2,3-d]pyrimidine-5-carboxamide], 53%; for `COCc1ccc(NC(=O)c2c(Br)n(C3(C)CC3)c3ncnc(N)c23)cc1` [Example 55, 4-amino-6-bromo-N-[4-(methoxymethyl)phenyl]-7-(1-methylcyclopropyl)-7H-pyrrolo[2,3-d]pyrimidine-5-carboxamide], 56%.
As to `COCc1ccc(NC(=O)c2cn(C(C)(C)C)c3ncnc(N)c23)c(OC)c1` [Example 33, 4-amino-7-(tert-butyl)-N-(2-methoxy-4-(methoxymethyl)phenyl)-7H-pyrrolo[2,3-d]pyrimidine-5-carboxamide], the “Remaining (%)” value is 57%.
In the case of `COCc1ccc(NC(=O)c2c(C#Cc3cccc(F)c3)n(C3(C)CC3)c3ncnc(N)c23)cc1` [Example 130, 4-amino-6-((3-fluorophenyl)ethynyl)-N-(4-(methoxymethyl)phenyl)-7-(1-methylcyclopropyl)-7H-pyrrolo[2,3-d]pyrimidine-5-carboxamide], the “Remaining (%)” value turned out to be 84%.
In the case of `COCc1ccc(NC(=O)c2c(C#CCN3CC[S+]([O-])CC3)n(C3(C)CC3)c3ncnc(N)c23)cc1` [Example 178, 4-amino-N-(4-(methoxymethyl)phenyl)-7-(1-methylcyclopropyl)-6-(3-(1-oxidethiomorpholino)prop-1-yn-1-yl)-7H-pyrrolo[2,3-d]pyrimidine-5-carboxamide] it was 88%; in that of `COCc1ccc(NC(=O)c2c(C#Cc3cncc(F)c3)n(C3(C)CC3)c3ncnc(N)c23)cc1` [Example 175, 4-amino-6-((5-fluoropyridin-3-yl)ethynyl)-N-(4-(methoxymethyl)phenyl)-7-(1-methylcyclopropyl)-7H-pyrrolo[2,3-d]pyrimidine-5-carboxamide], 66%.
For the compound `COCc1ccc(NC(=O)c2c(C#Cc3cncnc3)n(C3(C)CC3)c3ncnc(N)c23)cc1` [Example 196, 4-amino-N-(4-(methoxymethyl)phenyl)-7-(1-methylcyclopropyl)-6-(pyrimidin-5-ylethynyl)-7H-pyrrolo[2,3-d]pyrimidine-5-carboxamide], the “Remaining (%)” value was determined as 53%.
For the compound `COCc1ccc(NC(=O)c2c(-c3cncnc3)n(C3(C)CC3)c3ncnc(N)c23)cc1` [Example 194, 4-amino-N-(4-(methoxymethyl)phenyl)-7-(1-methylcyclopropyl)-6-(pyrimidin-5-yl)-7H-pyrrolo[2,3-d]pyrimidine-5-carboxamide], the “Remaining (%)” value is recorded as 67%.
In the case of `COCc1ccc(NC(=O)c2c(C#CCN3CCCC3)n(C3(C)CC3)c3ncnc(N)c23)cc1` [Example 88, 4-amino-N-[4-(methoxymethyl)phenyl]-7-(1-methylcyclopropyl)-6-(3-(pyrrolidin-1-yl)prop-1-yn-1-yl)-7H-pyrrolo[2,3-d]pyrimidine-5-carboxamide] it was 59%.

Source of the values: patent publication US10155768B2, “Fused pyrimidine compound or salt thereof” (TAIHO PHARMACEUTICAL CO., LTD., priority 2016, dated 2018).
